Experimental data as given in patent US20230339851A1, “CXCR6 SULFONAMIDE COMPOUNDS” (CHEMOCENTRYX, INC., priority 2022, published 2023).

Target: T1, human CXCR6 (Homo sapiens, UniProt O00574)
T1 construct: expressed in transfected cells
Assay: Radioligand Binding Assay (125I-CXCL16 displacement)
Conditions: L1.2 cells stably transfected with human CXCR6 cDNA, 0.1 nM 125I-CXCL16, 4° C., three-hour incubation; read-out: Potency (IC50)
How it was run: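 L1.2 cells stably expressing human CXCR6 incubated 3 h at 4 °C in HBSS/0.1% BSA with 0.1 nM 125I-CXCL16 and graded compound concentrations. Bound radioactivity collected by filtration and counted; IC50 from 3-parameter nonlinear regression.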

T1 sequence (O00574 whole entry): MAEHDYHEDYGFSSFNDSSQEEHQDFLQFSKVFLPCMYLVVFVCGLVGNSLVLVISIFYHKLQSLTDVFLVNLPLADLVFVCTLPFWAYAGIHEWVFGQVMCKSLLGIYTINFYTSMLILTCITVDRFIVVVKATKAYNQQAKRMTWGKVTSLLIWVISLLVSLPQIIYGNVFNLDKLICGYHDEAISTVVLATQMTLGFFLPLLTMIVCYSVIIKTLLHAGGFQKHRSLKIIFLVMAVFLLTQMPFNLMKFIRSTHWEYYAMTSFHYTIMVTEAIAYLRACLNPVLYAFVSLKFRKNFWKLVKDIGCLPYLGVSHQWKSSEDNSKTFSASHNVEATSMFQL

IC50 | SMILES
750 to 2000 nM | CCOc1cc(NC(=O)C2CC=CC2)ccc1S(=O)(=O)Nc1cccc(OC(F)(F)F)c1 [Example 1.319]
≤ 200 nM | CCOc1cc(NC(=O)[C@@H](O)c2ccccc2)ccc1S(=O)(=O)Nc1ccc(F)c(OC(F)(F)F)c1 [Example 1.220]
≤ 200 nM | Cc1cc(NC(=O)[C@@H](CO)C2CC2)ccc1S(=O)(=O)Nc1cccc(OC(F)(F)F)c1 [Example 1.079]
750 to 2000 nM | CCOc1cc(NC(=O)C2(O)CC2)ccc1S(=O)(=O)Nc1cccc(OC(F)(F)F)c1 [Example 1.318]
≤ 200 nM | CCOc1cc(NC(=O)[C@H]2CCOC[C@H]2COC)ccc1S(=O)(=O)Nc1cccc(OC(F)(F)F)c1 [Example 1.499]
2000 to 20000 nM | CCOc1cc(NC(=O)[C@@H](CO)C(C)C)ccc1S(=O)(=O)Nc1cccc(OC(F)(F)F)c1C [Example 1.101]
2000 to 20000 nM | Cc1cc(NC(=O)C2CCNCC2)ccc1S(=O)(=O)Nc1cccc(C(F)(F)F)c1 [Example 1.381]
≤ 200 nM | CCOc1cc(NC(=O)C2CCOCC2)ccc1S(=O)(=O)Nc1ccc(C)c(OC(F)(F)F)c1 [Example 1.123]
≤ 200 nM | CCOc1cc(NC(=O)C(O)C2CCC2)ccc1S(=O)(=O)Nc1cccc(OC(F)(F)F)c1 (stereo not shown) [Example 1.222]
≤ 200 nM | CCOc1cc(NC(=O)[C@@H](N)C2CC2)ccc1S(=O)(=O)Nc1cccc(OC(F)(F)F)c1 [Example 1.393]
2000 to 20000 nM | CCOc1cc(NC(=O)CC(O)CC2CCOCC2)ccc1S(=O)(=O)Nc1cccc(OC(F)(F)F)c1 (stereo not shown) [Example 1.131]
≤ 200 nM | CCOc1cc(NC(=O)[C@@H](O)c2ccccc2)ccc1S(=O)(=O)Nc1ccc(Cl)c(OC(F)(F)F)c1 [Example 1.262]
≤ 200 nM | CCOc1cc(NC(=O)c2ccn(C)c(=O)c2C)ccc1S(=O)(=O)Nc1cccc(OC(F)(F)F)c1 [Example 1.332]
200 to 750 nM | CCOc1cc(NC(=O)C2CCCOC2)ccc1S(=O)(=O)Nc1cccc(OC(F)(F)F)c1 (stereo not shown) [Example 1.420]
≤ 200 nM | CCOc1cc(NC(=O)[C@H]2CC=CC[C@H]2C(=O)O)ccc1S(=O)(=O)Nc1cccc(OC(F)(F)F)c1 [Example 1.160]
≤ 200 nM | CCOc1cc(NC(=O)[C@H](N)C(C)C)ccc1S(=O)(=O)Nc1cccc(OC(F)(F)F)c1 [Example 1.158]
≤ 200 nM | CCOc1cc(NC(=O)[C@@H](O)C(C)CC)ccc1S(=O)(=O)Nc1cccc(OC(F)(F)F)c1 (stereo partly shown) [Example 1.492]
750 to 2000 nM | COc1cc(NC(=O)[C@@H]2CCCC[C@H]2O)ccc1S(=O)(=O)Nc1cccc(OC(F)(F)F)c1 [Example 1.049]
≤ 200 nM | CCOc1cc(NC(=O)[C@H]2CCOC[C@@H]2C)ccc1S(=O)(=O)Nc1cccc(OC(F)(F)F)c1 (racemic) [Example 1.477]
2000 to 20000 nM | COc1cc(NC(=O)[C@@H]2CCCNC2)ccc1S(=O)(=O)Nc1cccc(C(F)(F)F)c1 [Example 1.471]

IC50 | SMILES
≤ 200 nM | CCOc1cc(NC(=O)c2cccnc2)ccc1S(=O)(=O)Nc1cccc(OC(F)(F)F)c1 [Example 1.403]
200 to 750 nM | CCOc1cc(NC(=O)[C@@H]2CCOCC[C@@H]2O)ccc1S(=O)(=O)Nc1cccc(OC(F)(F)F)c1 [Example 1.513]
750 to 2000 nM | CCOc1cc(NC(=O)[C@H]2CC=CC[C@H]2C(=O)O)ccc1S(=O)(=O)Nc1ccc(C)c(OC(F)(F)F)c1 (racemic) [Example 1.333]
≤ 200 nM | CCOc1cc(NC(=O)[C@@H](CO)C(C)C)ccc1S(=O)(=O)Nc1ccc(Cl)c(OC(F)(F)F)c1 [Example 1.004]
2000 to 20000 nM | CCOc1cc(NC(=O)[C@@H](CO)C(C)C)ccc1S(=O)(=O)Nc1ccc(CO)c(C(F)(F)F)c1 [Example 1.006]
≤ 200 nM | C=C(C)CC(CO)C(=O)Nc1ccc(S(=O)(=O)Nc2cccc(OC(F)(F)F)c2)c(OCC)c1 (stereo not shown) [Example 1.352]
750 to 2000 nM | CCOc1cc(NC(=O)CC(O)c2ccnn2C)ccc1S(=O)(=O)Nc1cccc(OC(F)(F)F)c1 (stereo not shown) [Example 1.060]
≤ 200 nM | CCOc1cc(NC(=O)C(O)C2C=CCCC2)ccc1S(=O)(=O)Nc1cccc(OC(F)(F)F)c1 (stereo not shown) [Example 1.246]
2000 to 20000 nM | CCOc1cc(NC(=O)C2CCC(=O)N(CC)C2)ccc1S(=O)(=O)Nc1cccc(OC(F)(F)F)c1 (stereo not shown) [Example 1.120]
2000 to 20000 nM | Cc1cc(NC(=O)C2CCOC2)ccc1S(=O)(=O)Nc1cccc(C(F)(F)F)c1 (stereo not shown) [Example 1.249]
200 to 750 nM | CCOc1cc(NC(=O)[C@H]2CC=CC[C@H]2CO)ccc1S(=O)(=O)Nc1cccc(OC(F)(F)F)c1 [Example 1.539]
≤ 200 nM | CCOc1cc(NC(=O)[C@@H](O)C(C)C)ccc1S(=O)(=O)Nc1ccc(OC)c(C(F)(F)F)c1 [Example 1.021]
200 to 750 nM | CCOc1cc(NC(=O)CC(C)O)ccc1S(=O)(=O)Nc1cccc(OC(F)(F)F)c1 (stereo not shown) [Example 1.253]
2000 to 20000 nM | CCOc1cc(NC(=O)[C@H]2CC[C@@](C)(O)CC2)ccc1S(=O)(=O)Nc1cccc(OC(F)(F)F)c1 [Example 1.043]
≤ 200 nM | CCOc1cc(NC(=O)c2ccccc2)ccc1S(=O)(=O)Nc1cccc(OC(F)(F)F)c1 [Example 1.073]
200 to 750 nM | CCOc1cc(NC(=O)[C@H]2CC=CC[C@H]2O)ccc1S(=O)(=O)Nc1cccc(OC(F)(F)F)c1 [Example 1.173]
200 to 750 nM | CCOc1cc(NC(=O)C(CO)CC2CCOCC2)ccc1S(=O)(=O)Nc1cccc(OC(F)(F)F)c1 (stereo not shown) [Example 1.309]
≤ 200 nM | COc1cc(NC(=O)c2ccnn2C)ccc1S(=O)(=O)Nc1ccc(C)c(OC(F)(F)F)c1 [Example 1.151]
200 to 750 nM | CCOc1cc(NC(=O)C2CCOCC2(C)C)ccc1S(=O)(=O)Nc1cccc(OC(F)(F)F)c1 (stereo not shown) [Example 1.215]
≤ 200 nM | CCOc1cc(NC(=O)c2ccn(CC)c(=O)c2)ccc1S(=O)(=O)Nc1cccc(OC(F)(F)F)c1 [Example 1.396]

Further lines, the molecule ahead of its results:

SMILES | IC50
Cc1cc(NC(=O)C2(C)CCCCC2)ccc1S(=O)(=O)Nc1cccc(C(F)(F)F)c1 [Example 1.265] | 2000 to 20000 nM
COc1cc(NC(=O)CC2CCCCC2)ccc1S(=O)(=O)Nc1cccc(C(F)(F)F)c1 [Example 1.343] | 750 to 2000 nM
COc1cc(NC(=O)c2ccnn2C)ccc1S(=O)(=O)Nc1cccc(OC(F)F)c1 [Example 1.041] | 200 to 750 nM
CCOc1cc(NC(=O)[C@@H](O)C(C)C)ccc1S(=O)(=O)Nc1cccc(C2CC2)c1 [Example 1.308] | ≤ 200 nM
Cc1cc(NC(=O)c2cccc(Cl)c2)ccc1S(=O)(=O)Nc1cccc(C(F)(F)F)c1 [Example 1.299] | 200 to 750 nM
CCOc1cc(NC(=O)[C@@H](CO)c2ccccc2)ccc1S(=O)(=O)Nc1ccc(C)c(F)c1 [Example 1.184] | 750 to 2000 nM
Cn1nccc1C(=O)Nc1ccc(S(=O)(=O)Nc2cccc(C(F)(F)F)c2)c(Br)c1 [Example 1.351] | 200 to 750 nM
COCC(=O)Nc1ccc(S(=O)(=O)Nc2cccc(C(F)(F)F)c2)c(C)c1 [Example 1.544] | 2000 to 20000 nM
CCOc1cc(NC(=O)[C@@H](O)C(C)C)ccc1S(=O)(=O)Nc1cccc(OC(C)C)c1 [Example 1.074] | 200 to 750 nM
CCOc1cc(NC(=O)[C@@H](CO)C(C)C)ccc1S(=O)(=O)Nc1ccc(C)c(Cl)c1 [Example 1.142] | ≤ 200 nM
Cc1cc(NC(=O)[C@@H]2CCCN2)ccc1S(=O)(=O)Nc1cccc(C(F)(F)F)c1 [Example 1.328] | 750 to 2000 nM
CCOc1cc(NC(=O)C(O)c2ccc(Cl)cc2)ccc1S(=O)(=O)Nc1cccc(OC(F)(F)F)c1 (stereo not shown) [Example 1.338] | ≤ 200 nM
COc1cc(NC(=O)c2ccnn2C)ccc1S(=O)(=O)Nc1cccc(OC(F)(F)F)c1 [Example 1.239] | ≤ 200 nM
CC(C)[C@H](O)C(=O)Nc1ccc(S(=O)(=O)Nc2cccc(OC(F)(F)F)c2)c(Cl)c1 [Example 1.078] | ≤ 200 nM
COc1cc(NC(=O)c2ccnn2C)ccc1S(=O)(=O)Nc1cccc(N(C)C)c1 [Example 1.337] | 750 to 2000 nM
CCOc1cc(NC(=O)[C@@H](NC(C)=O)C(C)CC)ccc1S(=O)(=O)Nc1cccc(OC(F)(F)F)c1 (stereo partly shown) [Example 1.349] | ≤ 200 nM
CCOc1cc(NC(=O)[C@@H](O)C(C)C)ccc1S(=O)(=O)Nc1cccc(Cl)c1C(F)(F)F [Example 1.579] | 2000 to 20000 nM
Cc1cc(NC(=O)c2ccon2)ccc1S(=O)(=O)Nc1cccc(C(F)(F)F)c1 [Example 1.268] | 750 to 2000 nM
COc1cc(NC(=O)c2ccnn2C)ccc1S(=O)(=O)Nc1cccc(C(F)(F)F)c1 [Example 1.153] | 200 to 750 nM
CCOc1cc(NC(=O)[C@@H](NC(=O)CC)C(C)C)ccc1S(=O)(=O)Nc1cccc(OC(F)(F)F)c1 [Example 1.241] | ≤ 200 nM
CC(C)[C@H](CO)C(=O)Nc1ccc(S(=O)(=O)Nc2cccc(OC(F)(F)F)c2)c(C#N)c1 [Example 1.482] | ≤ 200 nM
COc1cccc(C(=O)Nc2ccc(S(=O)(=O)Nc3cccc(C(F)(F)F)c3)c(C)c2)c1 [Example 1.534] | 2000 to 20000 nM
COc1cc(NC(=O)C2CC3C=CC2O3)ccc1S(=O)(=O)Nc1cccc(OC(F)(F)F)c1 (stereo not shown) [Example 1.179] | 200 to 750 nM
Cc1cc(NC(=O)c2ccns2)ccc1S(=O)(=O)Nc1cccc(C(F)(F)F)c1 [Example 1.346] | ≤ 200 nM
CCOc1cc(NC(=O)[C@@H](CO)c2ccccc2)ccc1S(=O)(=O)Nc1ccc(Cl)c(Cl)c1 [Example 1.175] | 200 to 750 nM
CCc1cc(NC(=O)[C@@H](O)C(C)C)ccc1S(=O)(=O)Nc1cccc(OC(F)(F)F)c1 [Example 1.059] | ≤ 200 nM
CCOc1cc(NC(=O)C(O)c2ccc(C(F)(F)F)cc2)ccc1S(=O)(=O)Nc1cccc(OC(F)(F)F)c1 (stereo not shown) [Example 1.278] | 200 to 750 nM
CCOc1cc(NC(=O)C(O)c2ccc(Br)cc2)ccc1S(=O)(=O)Nc1cccc(OC(F)(F)F)c1 (stereo not shown) [Example 1.564] | 200 to 750 nM
COc1cc(NC(=O)C(C)C2CCCCC2)ccc1S(=O)(=O)Nc1cccc(C(F)(F)F)c1 (stereo not shown) [Example 1.273] | 750 to 2000 nM
CCOc1cc(NC(=O)[C@@H](CO)C(C)C)ccc1S(=O)(=O)Nc1cccc(C(F)(F)F)c1 [Example 1.062] | ≤ 200 nM
